{
  "source": "patent US20120238488A1",
  "about": "“COMPOUNDS AND METHODS FOR TREATING NEOPLASIA” (priority 2009, published 2012)",
  "key": {"[1]": {"tested_on": "A549 xenografts (lung carcinoma)", "test": "A549 xenograft anti-tumor activity", "type": "in vivo, Nod/Scid mice", "description": "All administrations were intraperitoneal.\nAt day 20 post inoculation (dpi), mean tumor volume was measured at 117.6 mm^3.\nCompound 56 was administered intraperitoneallly using a [(QD×5;2) ×5] scheme. Paclitaxel, used as a positive control, was injected twice weekly for 5 cycles (Tuesday & Friday)."}, "[2]": {"tested_on": "HCT116 colon cancer, PC3 and DU145 prostate cancer cell lines", "test": "MTT proliferation/viability assay", "type": "cell-based", "settings": "72 h, FIGS. 1A-1D, HCT116 only compound 120", "description": "All assays were performed in triplicate.\nThe effect of the different compounds on the proliferation and viability of cancer cell lines was tested. Compound 120 was tested in one colon cancer cell line (HCT116), and compound Nos. 120, 12, 61, 1, and 56 were tested in two prostate cancer cell lines (PC3 and DU145). […] This colorimetric assay uses the reduction of MTT to formazan as a measure of metabolic activity. Untreated cells cultured in the presence of serum were used as a negative control."}, "[3]": {"tested_on": "22 different cell lines, nine tumor panels (lung, melanoma, ovary, prostate, CNS, breast, pancreas colon and renal)", "test": "SRB assay, all tumor cell line panels (summary statements)", "type": "cell-based, human", "description": "SRB assays were performed according to standard National Cancer Institute Guidelines. Briefly, human tumor cells from different cancer panels were seeded into 96 well plates in 100 μL (plating densities ranging from 5-40,000 cells/well depending on the doubling time of individual cell lines) in serum-containing media for twenty-four hours prior to the addition of the compounds to be assayed. After 24 hours, one plate of each cell line was fixed in situ with trichloroacetic acid (TCA). The fixed slides were used to determine the cell population for each cell line at the time of drug addition (Tz). Each compound to be tested was solubilized in DMSO and the desired concentration was then added to the medium and diluted serially 1:10 to provide a total of five or ten drug concentrations plus control (in a final volume of 200 μL). The starting dose before any dilution was 100 uM for all compounds.\nFollowing drug addition, each culture was incubated for forty-eight hours. The assay was terminated with the addition of cold TCA. The supernatant was discarded, and the plates were washed with tap water and air dried. Sulforhodamine B (SRB) solution was then added to each well. After staining, the bound stain was solubilized and the absorbance was read on an automated plate reader at a wavelength of 515 nm.\nUsing the absorbance measurements [time zero, (Tz), control growth, (C), and test growth in the presence of drug at the ten concentration levels (Ti)], the percentage growth was calculated at each of the drug concentrations levels. Percentage growth inhibition was calculated as:\nThree dose response parameters were calculated for each experimental agent. […] The drug concentration resulting in total growth inhibition (TGI) was calculated from Ti=Tz. The LC50 (concentration of drug resulting in a 50% reduction in the measured protein at the end of the drug treatment as compared to that at the beginning) indicating a net loss of cells following treatment was calculated from [(Ti−Tz)/Tz]×100=−50.\nEach of these parameters in Table 4 was calculated in a sulforhodamine B (SRB) assay, which provides a colorimetric measure of a compound's anti-cancer activity. SRB assays were performed with compounds of the invention in 22 different cell lines (shaded in light gray in Table 4), which represent nine different tumor panels (lung, melanoma, ovary, prostate, CNS, breast, pancreas colon and renal). […] Paclitaxel was added as a non-Na^+K^+-ATPase inhibitor control."}},
  "data": [
    {"compound": "C[C@]12CCC(=NOC3CCNC3)CC1CCC1C2CC[C@]2(C)C(=O)CCC12", "note": "(stereo partly drawn) [Compound 56, (10S,13S)-10,13-dimethyl-3-(pyrrolidin-3-yloxyimino)tetradecahydro-1H-cyclopenta[a]phenanthren-17(2H)-one]", "values": [
      {"measurement": "weight changes", "setting": "[1]; A549 xenograft mice, 20 mgk intraperitoneal", "value": "no significant weight changes"},
      {"measurement": "DT/DC", "setting": "[1]; A549 xenografts, day 24, compound 56 20 mgk, paclitaxel 18 mgk, intraperitoneal", "value": "−10.47", "unit": "%"},
      {"measurement": "post mortem analysis on excised tumors: tumor growth inhibition", "setting": "[1]; A549 xenografts, compound 56 20 mgk, paclitaxel 18 mgk", "value": "statistical significant tumor growth inhibition"},
      {"measurement": "anti-tumor activity in A549 xenografts (FIG. 2B)", "setting": "[1]; mouse, in vivo", "value": "has anti-tumor activities"},
      {"measurement": "inhibition of cell proliferation and viability (MTT)", "setting": "[2]", "value": "strong inhibition of cell proliferation and viability"},
      {"measurement": "GI50", "setting": "[3]; Homo sapiens, SRB, all cell line panels, read-out: GI50 activity for all cell line panels tested", "value": "< 100", "unit": "nM"},
      {"measurement": "GI50 action in all cell line panels tested (in words)", "setting": "[3]; SRB, all cell line panels", "value": "nanomolar GI50 action"},
      {"measurement": "viability and/or cell proliferation of neoplastic cell lines", "setting": "[3]; lung, breast, CNS, colon, prostate, ovary, pancreas, kidney and melanoma lines, including a multidrug resistant cell line", "value": "reduced the viability and/or cell proliferation"}
    ]}
  ]
}
